The values below are quoted from earlier work in patent US20250333447A1, “CHIMERIC SMALL MOLECULES FOR LABELING PROTEINS WITH IMMUNOGENIC MOIETIES AND METHODS OF USE THEREOF” (The Brigham and Women's Hospital, Inc., priority 2022, published 2025).

In series [1] the target is PSMA (Homo sapiens, UniProt Q04609).
Series [2] deals with HSP90. The following applies: cell free assay.

Chain of PSMA (Q04609 whole entry, species assumed): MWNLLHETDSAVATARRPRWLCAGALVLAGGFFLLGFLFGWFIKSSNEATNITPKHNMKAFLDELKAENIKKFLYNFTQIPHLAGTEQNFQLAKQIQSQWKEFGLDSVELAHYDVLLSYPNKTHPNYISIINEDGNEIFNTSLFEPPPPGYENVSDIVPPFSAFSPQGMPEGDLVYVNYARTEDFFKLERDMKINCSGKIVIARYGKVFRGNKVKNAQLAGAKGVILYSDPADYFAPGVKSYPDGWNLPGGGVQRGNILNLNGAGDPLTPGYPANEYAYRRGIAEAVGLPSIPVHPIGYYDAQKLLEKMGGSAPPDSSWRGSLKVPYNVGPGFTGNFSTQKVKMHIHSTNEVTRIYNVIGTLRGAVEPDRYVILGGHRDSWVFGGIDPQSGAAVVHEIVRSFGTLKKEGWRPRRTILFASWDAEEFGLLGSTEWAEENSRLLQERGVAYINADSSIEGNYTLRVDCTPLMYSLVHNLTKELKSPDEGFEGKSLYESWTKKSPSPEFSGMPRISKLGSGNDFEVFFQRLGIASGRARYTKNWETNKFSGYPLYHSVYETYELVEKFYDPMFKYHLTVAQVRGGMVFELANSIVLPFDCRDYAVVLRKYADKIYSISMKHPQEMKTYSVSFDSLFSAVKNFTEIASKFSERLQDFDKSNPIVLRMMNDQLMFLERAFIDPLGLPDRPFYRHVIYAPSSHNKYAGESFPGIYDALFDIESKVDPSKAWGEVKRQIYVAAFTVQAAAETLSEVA

Usually Ki stands for a measure of affinity in units of concentration, obtained from inhibition or displacement. For `O=C(O)CC[C@H](NC(=O)N[C@@H](CCC(=O)O)C(=O)O)C(=O)O` [DUPA], the Ki in series [1] was 8 nM.

The IC50 is the concentration that inhibits the measured activity by half. Turning to `CO[C@H]1/C=C\C=C(/C)C(=O)NC2=CC(=O)C(NCCN(C)C)=C(C[C@@H](C)C[C@H](OC)[C@H](O)[C@@H](C)/C=C(\C)[C@@H]1OC(N)=O)C2=O` [Alvespimycin], the IC50 in series [2] was 62 nM.
